# Patent US10899785B2, “Aminoglycoside derivatives and uses thereof in treating genetic disorders” (Eloxx Pharmaceuticals Ltd., priority 2015, dated 2021)
# Entries after “also recorded” stand apart in the source; their conditions may differ. Where two headings read alike, the source gives them in different places.
# Legend:
# [1] = tested on: prokaryotic ribosome (E. coli S30 extract); assay: Prokaryotic in vitro translation inhibition, coupled transcription/translation, E. coli S30 extract, pBESTluc; assay type: biochemical; conditions: from IC50^Pro and MIC values of Tables 4 and 6
# Method: (§1) Prokaryotic in vitro translation inhibition by the different aminoglycosides was quantified in coupled transcription/translation assays by using E. coli S30 extract for circular DNA with the pBESTluc plasmid (Promega), according to the manufacturer's protocol. Translation reactions (25 μL) that contained variable concentrations of the tested aminoglycoside were incubated at 37° C. for 60 minutes, cooled on ice for 5 minutes, and diluted with a dilution reagent (tris-phosphate buffer (25 mM, pH 7.8), DTT (2 mM), 1,2-diaminocyclohexanetetraacetate (2 mM), glycerol (10%), Triton X-100 (1%) and BSA (1 mg mL-1)) into 96-well plates. Eukaryotic in vitro translation inhibition was quantified by use of TNT® T7 Quick Coupled Transcription/Translation System with a luciferase T7 control DNA plasmid (Promega), according to the manufacturer protocol. Translation reactions (25 μL) containing variable concentrations of the tested aminoglycoside were incubated at 30° C. for 60 minutes, cooled on ice for 5 minutes, diluted with the dilution reagent and transferred into 96-well plates. In both prokaryotic and eukaryotic systems the luminescence was measured immediately after the addition of the Luciferase Assay Reagent (50 μL; Promega), and the light emission was recorded with a FLx800 Fluorescence Microplate Reader (Biotek). The half-maximal inhibition concentration (IC50) values were obtained from fitting concentration-response curves to the data of at least two independent experiments by using Grafit 5 software.
# (§2) In all biological tests, all AGs were in their sulfate salt forms, and the concentrations refer to the free amine form of each AG. The eukaryotic and prokaryotic half-maximal-inhibition values (IC50^Euk and IC50^Pro) were quantified in coupled transcription/translation assays by using active luciferase detection as previously described. Minimal inhibitory concentration (MIC) values were determined by using the double-microdilution method.
# B. subtilis ATCC-6633 = assay: Antibacterial activity, MIC by double-microdilution; assay type: cell-based
# Method: (§3) Comparative antibacterial activities were determined in two representative strains of Gram-negative (E. coli R477-100) and Gram-positive (B. subtilis ATCC-6633) bacteria, by measuring the MIC values using the double-microdilution method according to the National Committee for Clinical Laboratory Standards (NCCLS) (NCCLS. National Committee for Clinical Laboratory Standards, Performance standards for antimicrobial susceptibility testing. Fifth information supplement: Approved Standard M100-S5; Villanova, Pa.: NCCLS, 1994.).
# as §2
# E. coli R477-100 = assay: as above; assay type: cell-based; conditions: for MIC: Escherichia coli, R477100, read-out: Antibacterial Activity MIC E. Coli R 477/100
# Method: as §3, §2
# [2] = tested on: cystic fibrosis G542X nonsense mutation; assay: Cell-free nonsense mutation suppression dose-response assay, firefly/renilla; assay type: biochemical, rabbit; conditions: 0-50 μM, FIGS. 4-7
# Method: (§4) The plasmids were transcribed in vitro and translated using rabbit reticulocytes (TNT mix) and then tested for the expression levels of the firefly and renilla luciferases.
# (§5) WT plasmids expressed both firefly and renilla luciferases while mutant plasmids expressed only the renilla luciferase due to the stop codon found in the inserted sequence. The readthrough assays were conducted for the tested compounds and the controls by adding the compounds to the in vitro transcription/translation reaction mixture. In case the compounds exerted suppression of the premature nonsense/stop codon mutation, the firefly luciferase was expressed and a fold-change in its expression was observed.
# Readthrough activity of Cystic Fibrosis (CF) mutation G542X was tested using the compounds presented in Table 1, and the mutation suppression was calculated based on firefly/renilla expression ratio values, and normalized with respect to the expression level of the WT and the control sample (no tested compound).
# [3] = tested on: nonsense constructs R3X and R245X (USH1), Q70X (HS), G542X (CF); assay: Dual luciferase in vitro readthrough assay, p2Luc plasmids, TNT Reticulocyte Lysate; assay type: biochemical; conditions: for in vitro stop codon suppression (readthrough) activity compared with Compound 1: R3X nonsense mutation construct (USH1), FIG. 10
# Description: DNA fragments derived from PCDH15, CFTR, and IDUA cDNAs, including the tested nonsense mutation or the corresponding wild type (wt) codon, and four to six upstream and downstream flanking codons were created by annealing the following pairs of complementary oligonucleotides:
# Fragments were inserted in frame into the polylinker of the p2Luc plasmid between either BamHI and SacI (p.R3X and p.R245X) or SalI and SacI (all the rest) restriction sites. For the in vitro readthrough assays, the obtained plasmids, with addition of the tested aminoglycosides were transcribed and translated using the TNT Reticulocyte Lysate Quick Coupled Transcription/Translation System. Luciferase activity was determined after 90 minutes of incubation at 30° C., using the Dual Luciferase Reporter Assay System (Promega™).
# Activity was tested using a collection of dual-luciferase reporter plasmids, containing different sequence contests around premature stop codons derived from the PCDH15, CFTR, and IDUA genes that underline USH1, CF, and MPS I-H, respectively. The exemplified nonsense reporters were R3X and R245X for USH1, G542X for CF, and Q70X for MPS I-H.
# [4] = tested on: premature termination codon (PTC); assay: Comparative in-vitro PTC suppression activity assays (Example 6); assay type: biochemical
# [5] = tested on: Rett syndrome R168X, R270X and R294X nonsense mutations; assay: Cell-free nonsense mutation suppression assay, firefly/renilla; assay type: biochemical, rabbit; conditions: 5 μM, FIGS. 8A-C
# Method: as §4, §5
# FIGS. 8A-C present the results of Rett syndrome R168X (FIG. 8A), R270X (FIG. 8B) and R294X (FIG. 8C) nonsense mutations suppression cell-free assays conducted for six exemplary compounds according to embodiments of the present invention, NB144, NB145, NB146, NB150, NB151 and NB152, at a concentration of 5 μM. As shown therein, when compared with the control (non-treated cell extracts), the wild type cell extracts are unaffected (approx. 100%); however, in all three Rett syndrome mutation models there is a significant impact of the different treatments on the readthrough activity (>>>100%).
# [6] = tested on: eukaryotic cytoplasmic ribosome; assay: Eukaryotic in vitro translation inhibition, TNT T7 Quick Coupled Transcription/Translation System, luciferase; assay type: biochemical; conditions: NB156 vs NB74, NB157 vs NB124
# Method: as §1, with “Translation reactions (25 μL) containing variable concentrations of the tested aminoglycoside were incubated at 30° C. for 60 minutes, cooled on ice for 5 minutes, diluted with the dilution reagent and transferred into 96-well plates.” left out, “The half-maximal inhibition concentration (IC50) values were obtained from fitting concentration-response curves to the data of at least two independent experiments by using Grafit 5 software.” left out
# In all biological tests, all AGs were in their sulfate salt forms, and the concentrations refer to the free amine form of each AG. […] Minimal inhibitory concentration (MIC) values were determined by using the double-microdilution method.
# [7] = Bacillus subtilis, ATCC6633, Table 6, read-out: Antibacterial activity MIC B. subtilis ATCC6633
# [8] = Bacillus subtilis, ATCC6633, Table 4, read-out: Antibacterial Activity MIC B. Subtilis ATCC6633
# [9] = all mutations tested: R3X, R245X, Q70X, G542X, FIGS. 11A-D
compound,measurement,setting,value
NC[C@H]1O[C@@H](O[C@@H]2C(O)[C@H](N)CC(N)[C@H]2O[C@H]2OC(CO)=CC(O)[C@@H]2N)C(O)[C@H]1O (stereo partly drawn) [NB158],prokaryotic ribosome/protein synthesis inhibition and subsequent antibacterial activity compared with structurally related compound,[1],"significantly lower than that of the corresponding paromamine, NB30, and NB118"
same,MIC,B. subtilis ATCC-6633; [7],192 mg/L
"CC(O)C1O[C@H](O[C@@H]2C(N)C[C@@H](N)C(O)C2O[C@@H]2O[C@H]([C@H](C)N)C(O)C2O)C(N)C(O)[C@@H]1O (single isomer, unassigned) [NB124, reference compound]",MIC,B. subtilis ATCC-6633; [8],156 µM
gentamicin [reference compound],Antibacterial Activity MIC E. Coli R 477/100,E. coli R477-100; Table 4,6 µM
same,MIC,"B. subtilis ATCC-6633; Table 4, read-out: Antibacterial Activity MIC B. Subtilis ATCC6633",<0.75 µM
C[C@@H](O)C1O[C@H](O[C@@H]2C(N)C[C@@H](NCc3ccccc3)C(O)C2O)C(N)C(O)[C@@H]1O (stereo in doubt) [NB145],"G542X mutation suppression (readthrough) activity, dose-response",[2],notable dose-dependent readthrough activity
C[C@@H](O)C1O[C@H](O[C@@H]2C(N)C[C@@H](N)C(O)C2O[C@@H]2O[C@H](CNC(=N)N)C(O)C2O)C(N)C(O)[C@@H]1O (stereo in doubt) [NB151],"G542X mutation suppression (readthrough) activity, dose-response",[2],notable dose-dependent readthrough activity
"N[C@H]1[C@@H](O[C@H]2[C@H](O)[C@@H](O)[C@H](N)C[C@@H]2N)O[C@H]([C@H](O)CO)[C@@H](O)[C@@H]1O [NB153, (2R, 3S, 4R, 5R, 6S)-5-amino-6-(((1R, 2R, 3S, 4R, 6S)-4,6-diamino-2,3-dihydroxycyclohexyl)oxy)-2-((R)-1,2-dihydroxyethyl)tetrahydro-2H-pyran-3,4-diol]",MIC,E. coli R477-100,> 311 µM
same,MIC,B. subtilis ATCC-6633; [8],311 µM
same,in vitro stop codon suppression (readthrough) activity compared with Compound 1,[3],dramatically increases its in vitro readthrough activity
"N[C@H]1[C@@H](O[C@H]2[C@H](O)[C@@H](O)[C@H](N)C[C@@H]2N)OC(CO)=C[C@@H]1O [NB154, (1S,2R,3R,4S,6R)-4,6-diamino-3-(((2S,3R,4S)-3-amino-4-hydroxy-6-(hydroxymethyl)-3,4-dihydro-2H-pyran-2-yl)oxy)cyclohexane-1,2-diol]",prokaryotic ribosome/protein synthesis inhibition and subsequent antibacterial activity compared with structurally related compound,[1],"significantly lower than that of the corresponding paromamine, NB30, and NB118"
same,MIC,E. coli R477-100,> 384 mg/L
same,MIC,B. subtilis ATCC-6633; [7],> 384 mg/L
same,in-vitro PTC suppression activity compared with structurally related compound,[4],more or less similar activity as that of NB82
same,"readthrough activity, fold higher than paromamine",[4]; preliminary comparative in-vitro PTC suppression assays,~3.5 fold
C[C@H](N)[C@H]1O[C@@H](O[C@@H]2C(O)[C@H](N)CC(N)[C@H]2O[C@H]2OC(CO)=CC(O)[C@@H]2N)C(O)[C@H]1O (stereo partly drawn) [NB159],prokaryotic ribosome/protein synthesis inhibition and subsequent antibacterial activity compared with structurally related compound,[1],"significantly lower than that of the corresponding paromamine, NB30, and NB118"
same,MIC,B. subtilis ATCC-6633; [7],192 mg/L
C[C@@H](O)C1O[C@H](O[C@@H]2C(N)C[C@@H](NC(=N)N)C(O)[C@H]2O)C(N)C(O)[C@@H]1O (stereo in doubt) [NB150],"G542X mutation suppression (readthrough) activity, dose-response",[2],notable dose-dependent readthrough activity
CCCN[C@@H]1CC(N)[C@@H](O[C@H]2OC([C@@H](C)O)[C@@H](O)C(O)C2N)C(O)C1O (stereo in doubt) [NB146],"G542X mutation suppression (readthrough) activity, dose-response",[2],"clearly dose-dependent for all three compounds, and particularly for NB146; also recorded: notable dose-dependent readthrough activity"
same,readthrough activity compared within the series,[5],better activity compared to NB144 and NB145
"C[C@H](N)[C@H]1O[C@@H](O[C@@H]2[C@@H](O)[C@H](N)C[C@H](N)[C@H]2O[C@H]2O[C@H]([C@H](O)CO)[C@@H](O)[C@H](O)[C@H]2N)[C@@H](O)[C@H]1O [NB157, (2R, 3S, 4R, 5R, 6S)-5-amino-6-(((1R, 2R, 3S, 4R, 6S)-4,6-diamino-2-(((2S, 3S, 4R, 5R)-5-((S)-1-aminoethyl)-3,4-dihydroxytetrahydrofuran-2-yl)oxy)-3-hydroxycyclohexyl)oxy)-2-((R)-1,2-dihydroxyethyl)tetrahydro-2H-pyran-3,4-diol]",prokaryotic ribosome/protein synthesis inhibition and subsequent antibacterial activity compared with structurally related compound,[1],very similar to those of their structurally related Compounds NB74 and NB124
same,MIC,E. coli R477-100,> 257 µM
same,MIC,B. subtilis ATCC-6633; [8],64 µM
same,fold more specific to the eukaryotic ribosome than structurally related compound,[6],1.25 fold
same,readthrough activity compared with gentamicin,[3]; [9],significantly better than that of the clinical drug gentamicin
same,readthrough activity compared with structurally related compound,[3]; [9],better than its structurally related NB124
"NC[C@H]1O[C@@H](OC2C(O)[C@H](N)CC(N)[C@H]2O[C@H]2OC(CO)[C@@H](O)C(O)C2N)C(O)C1O (stereo partly drawn) [NB30, reference compound]",MIC,E. coli R477-100,790 mg/L
same,MIC,B. subtilis ATCC-6633; [7],100 mg/L
"N[C@H]1[C@@H](O[C@H]2[C@H](O)[C@@H](O)[C@H](N)C[C@@H]2N)O[C@H]([C@@H](O)CO)[C@@H](O)[C@@H]1O [NB155, (2R, 3S, 4R, 5R, 6S)-5-amino-6-(((1R, 2R, 3S, 4R, 6S)-4,6-diamino-2,3-dihydroxycyclohexyl)oxy)-2-((S)-1,2-dihydroxyethyl)tetrahydro-2H-pyran-3,4-diol]",MIC,E. coli R477-100,> 375 µM
same,MIC,B. subtilis ATCC-6633; [8],> 375 µM
same,in vitro stop codon suppression (readthrough) activity compared with Compound 1,[3],somewhat higher activity of NB155 to that of Compound 1
"C[C@H](N)[C@H]1O[C@@H](OC2C(O)[C@H](N)CC(N)[C@H]2O[C@H]2OC(CO)[C@@H](O)C(O)C2N)C(O)C1O (stereo partly drawn) [NB118, reference compound]",MIC,E. coli R477-100,2660 mg/L
same,MIC,B. subtilis ATCC-6633; [7],83 mg/L
CC(C)CN[C@@H]1CC(N)[C@@H](O[C@H]2OC([C@@H](C)O)[C@@H](O)C(O)C2N)C(O)C1O (stereo in doubt) [NB144],"G542X mutation suppression (readthrough) activity, dose-response",[2],notable dose-dependent readthrough activity
C[C@@H](O)C1O[C@H](O[C@@H]2C(N)C[C@@H](NC(=O)C(O)CCN)C(O)C2O[C@@H]2O[C@H](CNC(=N)N)C(O)C2O)C(N)C(O)[C@@H]1O (stereo in doubt) [NB152],"G542X mutation suppression (readthrough) activity, dose-response",[2],notable dose-dependent readthrough activity
same,readthrough activity compared within the series,[5],higher activity compared to NB150 and NB151
